Here are results for 14 compounds from patent US10836764B2, “5-HT2C receptor agonists and compositions and methods of use” (Arena Pharmaceuticals, Inc., priority 2016, dated 2020).

A word on the EC50: it is the concentration needed to bring the measured effect to its halfway point.

Each structure is given as a SMILES string. Like-named read-outs stand apart in the source and are kept apart here.

One assay addresses 5-HT2B receptor (Homo sapiens (Human), UniProt P41595). The assay is described as follows: IP accumulation assay, 5-HT2B. Format: cell-based. Particulars: IP accumulation, HEK293 cells, 2 h at 37° C.; read-out: EC50 5HT2B. Here is the method: (§1) HEK293 cells expressing recombinant 5-HT2 receptors were added to sterile poly-D-lysine-coated 96-well microtiter plates (35,000 cells/well) and labeled with 0.6 μCi/well of [^3H]inositol in myoinositol-free DMEM for 18 h. Unincorporated [^3H]inositol was removed by aspiration and replaced with fresh myoinositol-free DMEM supplemented with LiCl (10 mM final) and pargyline (10 μM final). Serially diluted test compounds were then added and incubation was conducted for 2 h at 37° C. (5-HT2B, and 5-HT2A) and RT (5-HT2C). Incubations were then terminated by lysing cells with the addition of ice-cold 0.1 M formic acid followed by freezing at −80° C. After thawing, total [^3H]inositol phosphates were resolved from [^3H]inositol using AG1-X8 ion exchange resin (Bio-Rad) and [^3H]inositol phosphates were measured by scintillation counting using a Perkin Elmer TopCount® scintillation counter. All EC50 determinations were performed using 10 different concentrations and triplicate determinations were made at each test concentration.

In assay [1] the target is T1, 5-HT2A receptor (Homo sapiens (Human), UniProt P28223). Kind of assay: IP accumulation assay, 5-HT2A. Format: cell-based. How it is done: as §1
In another assay the target is 5-HT2C receptor (Homo sapiens (Human), UniProt P28335). Kind of assay: IP accumulation assay, 5-HT2C. Format: cell-based. The conditions noted are these: IP accumulation, HEK293 cells, 2 h at RT; read-out: EC50 5HT2C. How it is done:
as §1

Assay [2] addresses T1, 5-HT2A receptor. Kind of assay: DOI radioligand binding assay, 5-HT2A. Particulars: [125I]DOI competition, HEK293 cell membranes; read-out: DOI Binding 5HT2A. Here is the method:
For the compounds of Table A, the following procedure was used. HEK293 cells stably expressing recombinant 5-HT2 receptors were harvested, suspended in ice-cold phosphate buffered saline, pH 7.4 (PBS), and then centrifuged at 48,000 g for 20 min at 4° C. The resulting cell pellet was then re-suspended in wash buffer containing 20 mM HEPES, pH 7.4 and 0.1 mM EDTA, homogenized on ice using a Brinkman Polytron, and centrifuged (48,000 g for 20 min at 4° C.). The pellet was then resuspended in 20 mM HEPES, pH 7.4, homogenized on ice, and centrifuged (48,000 g for 20 min at 4° C.). Crude membrane pellets were stored at −80° C. until used for radioligand binding assays.
For the compounds of Table A, the following procedure was used. […] Experiments comprised addition of 95 μL of assay buffer (20 mM HEPES, pH 7.4, 10 mM MgCl2), 50 μL of membranes, 50 μL of radioligand stock, and 5 μL of test compound diluted in assay buffer to 96-well microtiter plates, which were then incubated for 1 h at room temperature. Assay incubations were terminated by rapid filtration through PerkinElmer F/C filtration plates under reduced pressure using a 96-well Packard filtration apparatus, followed by washing three times with ice cold assay buffer. Plates were then dried at 45° C. for a minimum of 2 h. Finally, 25 μL of BetaScint™ scintillation cocktail was added to each well and the plates were counted in a Packard TopCount® scintillation counter. In each competition study, test compounds were dosed at ten concentrations with triplicate determinations at each test concentration.

[3] abbreviates: IP accumulation, HEK293 cells, 2 h at 37° C., read-out: EC50 5HT2A.

5-HT2B receptor, sequence (P41595 whole entry): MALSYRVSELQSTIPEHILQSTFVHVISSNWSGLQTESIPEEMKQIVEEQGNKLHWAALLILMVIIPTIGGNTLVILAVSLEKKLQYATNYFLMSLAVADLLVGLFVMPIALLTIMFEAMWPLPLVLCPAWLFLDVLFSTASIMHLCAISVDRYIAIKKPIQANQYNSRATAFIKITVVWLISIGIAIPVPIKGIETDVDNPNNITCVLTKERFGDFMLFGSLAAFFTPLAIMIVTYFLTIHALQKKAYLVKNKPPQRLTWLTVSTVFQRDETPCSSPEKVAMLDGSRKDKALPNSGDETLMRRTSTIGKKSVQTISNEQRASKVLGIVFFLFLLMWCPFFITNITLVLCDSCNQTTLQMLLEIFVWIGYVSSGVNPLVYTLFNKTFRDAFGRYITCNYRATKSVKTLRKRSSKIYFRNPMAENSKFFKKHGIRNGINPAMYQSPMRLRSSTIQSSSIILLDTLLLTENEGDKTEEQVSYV
T1 sequence (P28223 whole entry): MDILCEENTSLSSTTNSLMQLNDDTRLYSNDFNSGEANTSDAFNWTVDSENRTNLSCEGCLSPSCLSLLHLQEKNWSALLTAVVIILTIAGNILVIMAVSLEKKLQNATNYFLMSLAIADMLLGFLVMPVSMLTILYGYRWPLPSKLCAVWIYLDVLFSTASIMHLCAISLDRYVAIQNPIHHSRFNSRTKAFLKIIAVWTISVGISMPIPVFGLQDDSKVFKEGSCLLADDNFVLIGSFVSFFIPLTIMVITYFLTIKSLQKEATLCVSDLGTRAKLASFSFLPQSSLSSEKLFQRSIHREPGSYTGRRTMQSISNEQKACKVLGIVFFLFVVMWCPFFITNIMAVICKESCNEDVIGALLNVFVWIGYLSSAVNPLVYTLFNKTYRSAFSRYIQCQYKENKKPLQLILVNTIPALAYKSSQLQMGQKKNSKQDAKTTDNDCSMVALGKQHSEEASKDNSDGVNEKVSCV
5-HT2C receptor, sequence (P28335 33-458): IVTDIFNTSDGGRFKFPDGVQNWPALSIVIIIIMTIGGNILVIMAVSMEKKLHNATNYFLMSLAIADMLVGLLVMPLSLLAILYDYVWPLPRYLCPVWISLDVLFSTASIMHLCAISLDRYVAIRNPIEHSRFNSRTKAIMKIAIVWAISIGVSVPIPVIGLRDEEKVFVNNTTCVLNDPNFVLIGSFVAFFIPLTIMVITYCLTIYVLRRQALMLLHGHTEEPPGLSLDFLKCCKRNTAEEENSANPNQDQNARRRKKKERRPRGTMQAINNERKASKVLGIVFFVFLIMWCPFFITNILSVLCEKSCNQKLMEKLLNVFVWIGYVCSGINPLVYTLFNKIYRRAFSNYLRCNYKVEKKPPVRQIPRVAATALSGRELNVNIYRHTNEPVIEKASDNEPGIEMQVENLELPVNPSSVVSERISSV

For the compound `c1cc(-c2ccc3c(c2)OCO3)c2c(n1)N1CCNC[C@H]1CC2` [Compound 101, (R)-4-(benzo[d][1,3]dioxol-5-yl)-6,6a,7,8,9,10-hexahydro-5H-pyrazino[1,2-a][1,8]naphthyridine], the 50% effective concentration (EC50) on 5-HT2B receptor was not below 100 µM; on 5-HT2A receptor [1], not below 100 µM; on 5-HT2C receptor, 7.51 µM. For `CNC(=O)c1ccnc2c1CC[C@@H]1CNCCN21` [Compound 102, (R)-N-methyl-6,6a,7,8,9,10-hexahydro-5H-pyrazino[1,2-a][1,8]naphthyridine-4-carboxamide], the concentration giving a half-maximal response (EC50) on 5-HT2B receptor is not below 100 µM; at 5-HT2A receptor [1], not below 100 µM; at 5-HT2C receptor it was 100 µM.

Consider `O=C(Nc1ccnc2c1CC[C@@H]1CNCCN21)c1ccccc1Cl` [Compound 104, (R)-2-chloro-N-(6,6a,7,8,9,10-hexahydro-5H-pyrazino[1,2-a][1,8]naphthyridin-4-yl)benzamide], for which the figures for the concentration giving a half-maximal response (EC50) at 5-HT2B receptor, on 5-HT2A receptor [1] and on 5-HT2C receptor were not below 100 µM, not below 100 µM and 100 µM, respectively. With `FC(F)(F)Oc1cccc(-c2ccnc3c2CC[C@@H]2CNCCN32)c1` [Compound 105, (R)-4-(3-(trifluoromethoxy)phenyl)-6,6a,7,8,9,10-hexahydro-5H-pyrazino[1,2-a][1,8]naphthyridine], the EC50 at 5-HT2B receptor was not below 100 µM; at 5-HT2A receptor [1] (setting [3]), not below 100 µM; at 5-HT2C receptor, 3.07 µM. Turning to `CCCC(C)c1ccnc2c1CC[C@@H]1CNCCN21` (stereo partly drawn) [Compound 109, (6aR)-4-(pentan-2-yl)-6,6a,7,8,9,10-hexahydro-5H-pyrazino[1,2-a][1,8]naphthyridine], the Ki on 5-HT2A receptor [2] stood at 0.0259 µM. On to `CCOC(=O)Nc1ccnc2c1CC[C@@H]1CNCCN21` [Compound 123, (R)-ethyl(6,6a,7,8,9,10-hexahydro-5H-pyrazino[1,2-a][1,8]naphthyridin-4-yl)carbamate], for which the results for the EC50 at 5-HT2B receptor, on 5-HT2A receptor [1] and on 5-HT2C receptor were not below 100 µM, not below 100 µM and 0.898 µM, respectively.

For the compound `O=C(Cc1ccccc1)Nc1ccnc2c1CC[C@@H]1CNCCN21` [Compound 124, (R)-N-(6,6a,7,8,9,10-hexahydro-5H-pyrazino[1,2-a][1,8]naphthyridin-4-yl)-2-phenylacetamide], the EC50 is not below 100 µM on 5-HT2B receptor, not below 100 µM at 5-HT2A receptor [1] and 3.66 µM at 5-HT2C receptor. Consider `c1cc(C2CCC2)c2c(n1)N1CCNC[C@H]1CC2` [Compound 149, (R)-4-cyclobutyl-6,6a,7,8,9,10-hexahydro-5H-pyrazino[1,2-a][1,8]naphthyridine], for which the EC50 on 5-HT2A receptor [1] (setting [3]) was determined as 0.236 µM. Besides, at 5-HT2A receptor [2], the Ki turned out to be 0.0103 µM. As to `CC1CC2CNCCN2c2ncccc21` (stereo not drawn) [Compound 158, 5-methyl-6,6a,7,8,9,10-hexahydro-5H-pyrazino[1,2-a][1,8]naphthyridine], the Ki at 5-HT2A receptor [2] came to 1.08 µM. Regarding `CCc1c(COC(C)C)cnc2c1CC[C@@H]1CNCCN21` [Compound 163, (R)-4-ethyl-3-(isopropoxymethyl)-6,6a,7,8,9,10-hexahydro-5H-pyrazino[1,2-a][1,8]naphthyridine], the Ki at 5-HT2A receptor [2] turned out to be 0.468 µM. Still for that read-out and setting: with `CCc1c(C2CCC2)cnc2c1CC[C@@H]1CNCCN21` [Compound 166, (R)-3-cyclobutyl-4-ethyl-6,6a,7,8,9,10-hexahydro-5H-pyrazino[1,2-a][1,8]naphthyridine] the figure was 0.958 µM. Still for that read-out and setting: with `CSc1nc(Cl)c2c(n1)N1CCNC[C@H]1CC2` [Compound 169, (R)-4-chloro-2-(methylthio)-6,6a,7,8,9,10-hexahydro-5H-pyrazino[1′,2′:1,6]pyrido[2,3-d]pyrimidine] the figure was 0.129 µM; with `CCc1c(CC2CCCC2)cnc2c1CC[C@@H]1CNCCN21` [Compound 171, (R)-3-(cyclopentylmethyl)-4-ethyl-6,6a,7,8,9,10-hexahydro-5H-pyrazino[1,2-a][1,8]naphthyridine], 0.351 µM; with `CCCc1cncc2c1CC[C@@H]1CNCCN21` [Compound 173, (R)-4-propyl-6,6a,7,8,9,10-hexahydro-5H-pyrazino[1,2-a][1,7]naphthyridine], 0.044 µM.
